Entries after “also recorded” stand apart in the source; their conditions may differ. Read-outs that look alike come from different tables or passages of the source.

A word on the LD50: it is the dose expected to kill half of the subjects tested. Broadly, the inhibition is the relative decrease from the control value, in per cent.

The subject of one data set is HIV (HTLV-IIIB). The data set can be described thus: microbe, parasite or virus in culture. Format: cell-based. Particulars: for suppression of HIV replication (in words): at the tested concentrations (20-500 μM). How it is done:
To examine the effect on HIV infected cell, MT-4 cells (number of cells at the start of culture 1×10^4/well), that underwent anti-HIV assay, were infected with an HIV (HTLV-IIIB, 200 CCID50/well), cultured at 37° C. for 4 days, and determined for the inhibitory effect on HIV replication, according to the method by Pauels, R. et al., in J. Virol. Methods, 16, 171-185 (1987). Suramin was used as a control.

Data set [1] concerns patient suffering from ARC (HIV infection). The data set can be described thus: Clinical Experiment 1: formulation 1 tablets with active ingredient A given to one ARC patient. It counts as in vivo, human. How it is done: (§1) The clinical experiments using the agent for anti-HIV infection of the present invention are explained in the following. The clinical experiments described below were conducted in Thailand without informing the patients of the compound names, chemical structures, etc. of the photosensitizing dyes used as the active ingredient.
The agent for anti-HIV infection of the present invention was administered to a patient suffering from ARC. They had been diagnosed with HIV infection five years before and received administration of AZT/ddI/RTV for 14 months.
His bronchial asthma, a symptom of ARC, was also cured.

Data set [2] relates to patients suffering from ARC or AIDS (HIV infection). The data set can be described thus: Clinical Experiment 2: formulation 1 tablets with active ingredient A given to seven patients with ARC or AIDS. Format: in vivo, human. How it is done:
as §1
Seven patients suffering from ARC or AIDS were given the agent for anti-HIV infection of the present invention of formulation 1 containing the active ingredient A. Their medical history before treatment was as follows:
Along therewith, their appetite increased, rash, one of the symptoms of ARC, decreased, hemorrhoid was cured, and insomnia was ameliorated.

For data set [3] the following is noted: cited from earlier work.
[4] abbreviates: 20 μM, MT-4 cells, HTLV-IIIB 200 CCID50/well, 4 days at 37° C.
Where [5] appears, read: 100 μM, MT-4 cells, HTLV-IIIB 200 CCID50/well, 4 days at 37° C.
Setting [6] is: 500 μM, MT-4 cells, HTLV-IIIB 200 CCID50/well, 4 days at 37° C.
[7] abbreviates: after a further 16 weeks, daily dose 1000 μg, following 8 weeks at 500 μg.
The mark [8] stands for this setting: 8 weeks, 500 μg/day, one patient per line.

For the compound `CCN1C=CC(=CC=C(C=Cc2cc[n+](CC)c3ccccc23)c2cc[n+](CC)c3ccccc23)c2ccccc21.[I-].[I-]` [Active ingredient A], the “Inhibition (%) of HIV replication” value with HIV (HTLV-IIIB) (setting [4]) was 1%; with HIV (HTLV-IIIB) (setting [5]), 2%; in the data set with HIV (HTLV-IIIB) (setting [6]), 1%. Further, in the data set on HIV (HTLV-IIIB) (listed as active ingredients A), the “suppression of HIV replication (in words)” value is reported as “no anti-virus activity to suppress reproduction of HIV; also recorded: did not suppress the replication of HIV”. The “other improvement (in words)” value in data set [1] (after 8 weeks, daily dose 500 μg) is “increased appetite and increased pectoral muscle”. Besides, the body weight in data set [1] (after 8 weeks, daily dose 500 μg, 55.6 kg before administration) amounted to 56.9 kg; in data set [1] (setting [7]), 57.1 kg. Further, the CD4 count is 181 /mm^3 in data set [1] (after 8 weeks, daily dose 500 μg, 121/mm^3 before administration, person) and 192 /mm^3 in data set [1] (setting [7]). The “bronchial asthma, a symptom of ARC” value in data set [1] (after a further 16 weeks, daily dose 1000 μg) is “cured”. Also, in data set [2] (setting [8]), the “Improvement (Symptoms of ARC etc.)” value is “Increased appetite; also recorded: Amelioration of insomnia; also recorded: Cure of hemorrhoids; also recorded: Decrease of rash”. Also, the Side effects entry in data set [2] (setting [8]) was “None”. Besides, the “overall clinical effect (in words)” value in data set [2] (HIV-infected patients) was “most of the patients showed an increase in the CD4 count and in the body weight”. Besides, the “side effects such as toxic state” value in data set [3] (oral administration at 4 g/kg) was “does not cause any side effects”.
Turning to `CCCCCCCN1C(C)=CSC1=CC=C(C=Cc1scc(C)[n+]1CCCCCCC)c1scc(C)[n+]1CCCCCCC.[I-].[I-]` [Active ingredient B], the results for the “Inhibition (%) of HIV replication” value in the data set on HIV (HTLV-IIIB) (setting [4]), in the data set on HIV (HTLV-IIIB) (setting [5]) and in the data set on HIV (HTLV-IIIB) (setting [6]) were 2%, 1% and 2%, respectively. Moreover, in the data set on HIV (HTLV-IIIB), the “suppression of HIV replication (in words)” value is “no anti-virus activity to suppress reproduction of HIV; also recorded: did not suppress the replication of HIV”. The LD50 is 54 mg/kg in data set [3] (intraperitoneal administration) and 1500 mg/kg in data set [3] (oral administration).
For the compound `Cc1ccc(C(=O)Nc2ccc(S(=O)(=O)O)c3cc(S(=O)(=O)O)cc(S(=O)(=O)O)c23)cc1NC(=O)c1cccc(NC(=O)Nc2cccc(C(=O)Nc3cc(C(=O)Nc4ccc(S(=O)(=O)O)c5cc(S(=O)(=O)O)cc(S(=O)(=O)O)c45)ccc3C)c2)c1` [Suramin, reference compound], the inhibition at 0.8 µM in the data set on HIV (HTLV-IIIB) (Human immunodeficiency virus 1, MT4, 96 h, 0.8 μM, MT-4 cells, HTLV-IIIB 200 CCID50/well, 4 days at 37° C., read-out: Inhibition (%) of HIV replication) is 2%. In addition, the inhibition at 4 µM with HIV (HTLV-IIIB) (Human immunodeficiency virus 1, MT4, 96 h, 4 μM, MT-4 cells, HTLV-IIIB 200 CCID50/well, 4 days at 37° C., read-out: Inhibition (%) of HIV replication) worked out at 10%. Also, the inhibition at 20 µM in the data set on HIV (HTLV-IIIB) (Human immunodeficiency virus 1, MT4, 96 h, 20 μM, MT-4 cells, HTLV-IIIB 200 CCID50/well, 4 days at 37° C., read-out: Inhibition (%) of HIV replication) was found to be 100%. Also, the inhibition at 100 µM in the data set with HIV (HTLV-IIIB) (Human immunodeficiency virus 1, MT4, 96 h, 100 μM, MT-4 cells, HTLV-IIIB 200 CCID50/well, 4 days at 37° C., read-out: Inhibition (%) of HIV replication) was determined as 100%.

Values taken from patent publication US6455555B1, “Anti-HIV infection agents and method for treating HIV infection” (Kabushiki Kaisha Hayashibara Seibutsu Kagaku Kenkyujo, priority 2001, dated 2002).
